Source: PubChem BioAssay (NCI)
Where “and” joins values, the source holds several entries; their conditions need not be identical. Equal values may be shown once.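 96-well plates; 48 h exposure; 5 concentrations. Endpoints by linear interpolation between flanking doses. Not reached: highest tested concentration assigned. GI50 = concentration required for 50% inhibition of growth. TGI denotes the concentration required for complete inhibition of growth.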

Columns and labels:
Test in all cases: NCI-60 cell line screen, 48 h
786-0 renal = test system: 786-0 renal
BT-549 breast = test system: BT-549 breast
COLO 205 colon = test system: COLO 205 colon
HOP-62 NSCLC = test system: HOP-62 NSCLC
LOX IMVI melanoma = test system: LOX IMVI melanoma
MDA-MB-435 = test system: MDA-MB-435
PC-3 prostate = test system: PC-3 prostate
SF-295 CNS = test system: SF-295 CNS
SR leukemia = test system: SR leukemia
TK-10 renal = test system: TK-10 renal

SMILES	TGI (786-0 renal) [µM]	TGI (BT-549 breast) [µM]	TGI (COLO 205 colon)	TGI (HOP-62 NSCLC) [µM]	TGI (LOX IMVI melanoma) [µM]	TGI (MDA-MB-435) [µM]	TGI (PC-3 prostate)	TGI (SF-295 CNS)	TGI (SR leukemia) [µM]	TGI (TK-10 renal)	GI50 (786-0 renal) [µM]	GI50 (BT-549 breast) [µM]	GI50 (COLO 205 colon)	GI50 (HOP-62 NSCLC) [µM]	GI50 (LOX IMVI melanoma) [µM]	GI50 (MDA-MB-435) [µM]	GI50 (PC-3 prostate)	GI50 (SF-295 CNS)	GI50 (SR leukemia) [µM]	GI50 (TK-10 renal)
CCOC(=O)CCc1c(C)c2ccc(O)cc2oc1=O	> 100	> 100	> 100 µM	> 100	> 100	> 100	> 100 µM	> 100 µM	> 100	> 100 µM										
CCOC(=O)c1ccc2[nH]c(Cc3[nH]c4ccc(C(=O)OCC)cc4c3C)c(C)c2c1	31.4	37	21.2 µM	14.7	5.72	48.8	13.7 µM	13.5 µM	15.1	17.4 µM	4.51	11.6	2.51 µM	2.58	0.384	3.53	1.46 µM	1.42 µM	0.425	4.28 µM
N#Cc1c(SCc2ccccc2)nc2[nH]c(=S)[nH]c(=S)c2c1-c1ccco1	> 100	> 100	> 100 µM	> 100	> 100	> 100	20.5 µM	> 100 µM	> 100	72.1 µM	42.6	21	41.2 µM	58.4	> 100	59.5	0.448 µM	43.5 µM	19.1	15.2 µM
CCC(=O)Nc1ccc2c(c1)CN1C(=O)c3ccccc3C1=N2	> 100	> 100	> 100 µM	> 100	> 100	> 100	> 100 µM	> 100 µM	> 100	> 100 µM	> 100	> 100	> 100 µM	> 100	> 100	> 100	> 100 µM	> 100 µM	> 100	> 100 µM
Cc1cc(Nc2ncc(Cl)c(Nc3ccccc3S(=O)(=O)C(C)C)n2)c(OC(C)C)cc1C1CCNCC1	3.01		1.39 µM and 1.28 µM	2.75	2.71	2.16	2.92 µM and 2.07 µM	2.81 µM and 3.16 µM	1.58	2.76 µM and 2.61 µM	1.56	4.47	0.312 µM and 0.332 µM	1.4	1.36	0.944	1.42 µM and 0.793 µM	1.43 µM and 1.63 µM	0.0444	1.42 µM and 1.33 µM
Nc1nc(F)nc2c1ncn2C1OC(COP(=O)(O)O)C(O)C1O (configuration not stated)	384	302	610 µM	122	334	218	322 µM	917 µM	> 621	773 µM										
C=C1C(=O)O[C@H]2[C@H]1CC/C(COC(=O)N[C@@H](Cc1c[nH]c3ccccc13)C(=O)OC)=C\CC[C@@]1(C)O[C@@H]21	2.92	3.79	3.4 µM	22.1	2.58	3.25	3.41 µM	21.6 µM	1.51	3.19 µM	1.48	1.84	1.73 µM	8.77	1.16	1.49	1.45 µM	9.4 µM	0.262	1.72 µM
OCC1OC(O)C(N=Cc2ccc3c(c2)OCO3)C(O)C1O (configuration not stated)	> 100	> 100	> 100 µM	> 100	> 100	> 100	> 100 µM	> 100 µM	> 100	> 100 µM										
c1cncc(-c2cc(-c3cc(-c4cccnc4)n[nH]3)[nH]n2)c1	> 100	> 100	> 100 µM	> 100	> 100	> 100	> 100 µM	> 100 µM	> 100	> 100 µM										
CNC(=O)c1ccc(Nc2nc(OC3CCCC3)c3c(-c4ccc5nc(C)oc5c4)c[nH]c3n2)c(OC)c1	> 100	> 100	> 100 µM	> 100	> 100	> 100	> 100 µM	> 100 µM	> 100	> 100 µM	> 43.4	2.04	0.208 µM	> 100	0.381	> 100	3.57 µM		0.0861	> 68.7 µM
CN(C)c1ccc2[nH]c(O)c(C=Nc3ccc(S(N)(=O)=O)cc3)c2c1	> 25	> 25	> 25 µM	> 25	> 25	> 25	> 25 µM	> 25 µM	> 25	> 25 µM	> 25	> 25	15.6 µM	> 25	> 25	> 25	> 25 µM	> 25 µM	13.5	> 25 µM
Cc1cc(S(=O)(=O)/N=C(\N)n2nc(C)c(C)c2C)c(SCc2ccccc2)cc1Cl	> 100	> 100	> 100 µM	> 100	> 100	> 100	> 100 µM	> 100 µM	> 100	> 100 µM	> 100	> 100	74 µM	> 100	> 100	3.23	6.04 µM	7.99 µM	> 100	> 100 µM
O=C1C=CC(=O)N1c1ccc2c(c1)Cc1cc(NC(=O)C(F)(F)F)ccc1-2	13	31.6	26 µM	50.7	32.7	31.5	33.1 µM	> 100 µM	6.44	7.75 µM										
C[C@@H](Oc1cc(-c2cnn(C3CC4(CCNCC4)C3)c2)cnc1N)c1c(F)ccc(Cl)c1Cl	3.17	3.78	0.864 µM	5.9	2.56	2.39	5.79 µM	2.43 µM	1.53	4.7 µM	1.63	1.75	0.293 µM	1.25	1.22	1.06	0.758 µM	0.612 µM	0.0467	1.85 µM
O=C(Nc1cccc(-c2nc3ccccc3[nH]2)c1)c1cccc(NC(=O)c2ccco2)c1	3.05	3.92	10.6 µM	4.3	3.88	3.04	5.48 µM	4.41 µM	6.53	6.66 µM	1.65	1.85	3.49 µM	2.06	1.93	1.67	2.25 µM	1.92 µM	2.33	2.88 µM
CN1CCN(Cc2ccc(NC(=O)c3[nH]ncc3Nc3ccnc4ccsc34)cc2)CC1	13.6	15.9	8.32 µM	14.2	4.59	17.9	20.2 µM	14.2 µM	7	23.1 µM	3.84	4.3	1.42 µM	2.82	1.33	3.22	3.25 µM	3.73 µM	1.92	4.97 µM
CC(=O)NC(Cc1c[nH]c2ccccc12)C(=O)O (configuration not stated)	> 100	> 100	> 100 µM	> 100	> 100	> 100	> 100 µM	> 100 µM	> 100	> 100 µM										
COc1cc2c3c(n(CCCn4ccnc4)c(=O)c2cc1OC)-c1ccccc1C3=O	0.194	30.7		0.141	0.0385	0.779	> 100 µM	0.218 µM	0.0583	27.5 µM	< 0.01	0.0623	0.0979 µM	< 0.0162	< 0.0124	0.0417	0.169 µM	< 0.01 µM	0.0252	0.923 µM
O=C(CSc1nc2sc3c(c2c(=O)n1-c1ccccc1)CCCCC3)N/N=C/c1ccc(F)cc1	18.8	17.8	3.64 µM	7.39	14.8	> 100	26.8 µM	14.7 µM	6.17	4.16 µM	5.49	3.66	1.58 µM	2.38	2.35	10.3	4.91 µM	3.8 µM	0.357	1.6 µM
O=C1C(Br)=C(c2ccccc2)C(c2ccccc2)=C1c1ccccc1	4.26	10.9	3.69 µM	23	2.94	12.5	16.2 µM	23.5 µM	3.78	7.12 µM										
COc1cc(/C=C/C(=O)CC(=O)/C=C/c2ccc(OC(=O)CCNC34CC5CC(CC(C5)C3)C4)c(OC)c2)ccc1OC(=O)CCNC12CC3CC(CC(C3)C1)C2	21.3	7.67	20.8 µM	16.6	4.14	6.53	21.1 µM	6.99 µM	8.84	22.6 µM	3.2	2.4	4.71 µM	3.99	1.96	2.08	4.13 µM	2.56 µM	2.37	7.09 µM
